Results: patent US20140057953A1, “BIARYL DERIVATIVES AS SELECTIVE 17BETA-HYDROXYSTEROID DEHYDROGENASE TYPE 2 INHIBITORS” (priority 2011, published 2014)

Tests used:
17β-HSD2 [1] = biological target: T1, 17β-HSD2 (Homo sapiens, UniProt P37059); assay: Inhibition of 17β-HSD2 in cell-free assay; format: biochemical; design: 17β-HSD2 was obtained directly from the microsomal fraction; from tissue; host or cells: human placenta, microsomal fraction; details: human placenta, microsomal fraction, substrate E2 500 nM, cofactor NAD+ 1500 μM
T1 sequence (P37059 1-387): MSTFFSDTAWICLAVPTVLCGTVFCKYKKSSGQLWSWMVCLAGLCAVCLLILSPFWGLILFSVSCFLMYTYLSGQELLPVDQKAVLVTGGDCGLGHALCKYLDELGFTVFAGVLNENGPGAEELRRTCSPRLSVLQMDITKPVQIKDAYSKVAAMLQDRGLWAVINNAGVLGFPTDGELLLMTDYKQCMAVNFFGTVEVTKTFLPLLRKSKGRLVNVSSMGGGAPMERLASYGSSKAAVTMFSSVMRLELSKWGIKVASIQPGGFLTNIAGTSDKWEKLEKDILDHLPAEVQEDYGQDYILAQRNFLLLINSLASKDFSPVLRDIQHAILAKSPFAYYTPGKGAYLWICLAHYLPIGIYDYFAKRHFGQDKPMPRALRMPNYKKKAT
Description: (§1) Fresh human placenta was homogenized. Cytosolic and microsomal fractions were separated by centrifugation at 1000 g, 10000 g and 150000 g. 17β-HSD2 was obtained directly from the microsomal fraction. For the partial purification of 17β-HSD1, the cytosolic fraction was precipitated with ammonium sulfate. Aliquots containing 17β-HSD1 or 17β-HSD2 were stored frozen.
Inhibitor stock solutions were prepared in DMSO. Final concentration of DMSO was adjusted to 1% in all samples. The enzymatic reaction was started by addition of a mixture of unlabelled- and [^3H]-E2 (final concentration: 500 nM, 0.11 μCi). After 20 min at 37° C., the incubation was stopped with HgCl2 and the mixture was extracted with ether. After evaporation, the steroids were dissolved in acetonitrile. E1 and E2 were separated using acetonitrile/water (45:55) as mobile phase in a C18 RP chromatography column (Nucleodur C18, 3 μm, Macherey-Nagel, Duren) connected to a HPLC-system (Agilent 1100 Series, Agilent Technologies, Waldbronn). Detection and quantification of the steroids were performed using a radioflow detector (Berthold Technologies, Bad Wildbad). The conversion rate was calculated according to the following equation: […]

17β-HSD1 = biological target: T2, 17β-HSD1 (Homo sapiens, UniProt P14061); assay: Inhibition of 17β-HSD1 in cell-free assay; format: biochemical; details: human placenta, cytosolic fraction, substrate E1 500 nM, cofactor NADH 500 μM
T2 construct: For the partial purification of 17β-HSD1, the cytosolic fraction was precipitated with ammonium sulfate; from tissue; host or cells: human placenta, cytosolic fraction
T2 sequence (P14061 1-328): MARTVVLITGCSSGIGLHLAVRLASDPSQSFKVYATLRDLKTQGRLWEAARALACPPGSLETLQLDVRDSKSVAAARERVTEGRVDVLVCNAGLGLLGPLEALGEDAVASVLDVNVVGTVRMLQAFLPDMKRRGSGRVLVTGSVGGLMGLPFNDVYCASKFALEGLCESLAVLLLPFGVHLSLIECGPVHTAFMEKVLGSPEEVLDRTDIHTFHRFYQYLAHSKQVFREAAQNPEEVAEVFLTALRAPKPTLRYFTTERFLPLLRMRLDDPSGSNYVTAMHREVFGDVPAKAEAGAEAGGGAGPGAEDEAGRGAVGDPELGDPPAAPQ
Description: as §1
The 17β-HSD1 inhibition assay was performed similarly to the 17β-HSD2 test. The cytosolic fraction was incubated with NADH [500 μM], test compound and a mixture of unlabelled- and [^3H]-E1 (final concentration: 500 nM, 0.15 μCi) for 10 min at 37° C. Further treatment of the samples and HPLC separation was carried out as mentioned above for 17β-HSD2.

ERβ = ERβ (Homo sapiens, UniProt Q92731); assay: ER affinity assay (ERβ), [3H]-E2 displacement; details: Relative Binding Affinity, E2 = 100%; recombinant human protein
Description: (§2) The binding affinity of selected compounds to the ERα and ERβ was determined according to Zimmermann et al. (Zimmermann, J. et al., 3. Steroid Biochem. Mol. Biol., 94:57-66 (2005)) using recombinant human proteins. Briefly, 0.25 μM of ERα or ERβ, respectively, were incubated with [^3H]-E2 (10 nM) and test compound for 1 h at room temperature. The potential inhibitors were dissolved in DMSO (5% final concentration). Evaluation of non-specific-binding was performed with diethylstilbestrol (10 μM). After incubation, ligand-receptor complexes were selectively bound to hydroxyapatite (5 g/60 ml TE-buffer). The formed complex was separated, washed and resuspended in ethanol. For radiodetection, scintillator cocktail (Quickszint 212, Zinsser Analytic, Frankfurt) was added and the samples were measured in a liquid scintillation counter (Rack Beta Primo 1209, Wallac, Turku). […] The compound concentration to displace 50% of the receptor bound [^3H]-E2 were determined. Unlabelled E2 was used as a reference. For determination of the relative binding affinity (RBA) the ratio was calculated according to the following equation: […]
(§3) After the assay was established and validated a modification was made to increase throughput. […] Results were reported as RBA ranges.

ERα = biological target: T3, ERα (Homo sapiens, UniProt P03372); assay: ER affinity assay (ERα), [3H]-E2 displacement; details: Relative Binding Affinity, E2 = 100%; recombinant human protein
T3 sequence (P03372 1-595): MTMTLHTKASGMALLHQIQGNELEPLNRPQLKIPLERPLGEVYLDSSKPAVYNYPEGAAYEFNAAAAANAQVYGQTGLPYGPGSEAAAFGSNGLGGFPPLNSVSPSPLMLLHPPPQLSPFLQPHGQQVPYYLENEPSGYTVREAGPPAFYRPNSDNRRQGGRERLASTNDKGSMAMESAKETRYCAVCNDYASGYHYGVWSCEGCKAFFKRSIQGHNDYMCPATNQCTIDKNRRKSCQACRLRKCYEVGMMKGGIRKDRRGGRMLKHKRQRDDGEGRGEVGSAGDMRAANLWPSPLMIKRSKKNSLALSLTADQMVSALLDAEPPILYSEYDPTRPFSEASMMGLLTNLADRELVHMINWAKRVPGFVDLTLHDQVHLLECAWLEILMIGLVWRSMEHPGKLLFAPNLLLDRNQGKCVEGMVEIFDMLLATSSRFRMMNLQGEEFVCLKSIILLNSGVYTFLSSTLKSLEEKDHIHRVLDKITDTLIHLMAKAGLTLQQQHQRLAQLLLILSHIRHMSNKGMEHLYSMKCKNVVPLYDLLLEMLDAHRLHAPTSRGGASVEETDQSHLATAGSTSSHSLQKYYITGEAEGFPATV
Description: as §2, §3

17β-HSD2 [2] = biological target: T1, 17β-HSD2; assay: Inhibition of 17β-HSD2 in MDA-MB-231 cellular assay; format: cell-based; details: MDA-MB-231 cells, substrate [3H]-E2 200 nM
Description: [^3H-E2] (200 nM) is used as substrate, and is incubated with the inhibitor for 3.5 h at 37° C. After ether extraction, substrate and product are separated by HPLC and detected with a radioflow detector following the method previously described.

Sequence of ERβ (Q92731 whole entry): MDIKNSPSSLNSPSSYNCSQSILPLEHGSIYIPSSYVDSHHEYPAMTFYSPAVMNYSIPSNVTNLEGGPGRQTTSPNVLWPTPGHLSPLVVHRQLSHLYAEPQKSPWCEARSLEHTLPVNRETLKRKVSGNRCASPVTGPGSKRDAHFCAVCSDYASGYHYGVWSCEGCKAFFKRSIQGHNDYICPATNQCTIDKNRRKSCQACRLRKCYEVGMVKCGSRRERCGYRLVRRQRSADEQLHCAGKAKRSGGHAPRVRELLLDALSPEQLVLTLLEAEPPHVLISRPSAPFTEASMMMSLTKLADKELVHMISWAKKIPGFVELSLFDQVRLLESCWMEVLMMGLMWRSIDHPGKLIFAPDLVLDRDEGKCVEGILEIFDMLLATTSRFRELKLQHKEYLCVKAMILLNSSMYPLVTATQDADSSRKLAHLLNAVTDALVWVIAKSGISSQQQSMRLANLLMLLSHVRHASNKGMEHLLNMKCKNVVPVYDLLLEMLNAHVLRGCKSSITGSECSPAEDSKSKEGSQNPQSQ

| SMILES | IC50 (17β-HSD2 [1]) | IC50 (17β-HSD1) | ERβ RBA (%) (ERβ) | ERα RBA (%) (ERα) | inhibition at 1 µM (17β-HSD2 [2]) |
| --- | --- | --- | --- | --- | --- |
| COc1cccc(CN(C)C(=O)c2ccc(-c3cccc(C)c3)cc2)c1 [compound 3, N-(3-Methoxybenzyl)-N,3′-dimethylbiphenyl-4-carboxamide] | 0.265 µM | > 100 µM | <0.1% | <0.1% |  |
| COc1cccc(-c2cccc(C(=O)N(C)c3cccc(OC)c3)c2)c1 [compound 11, 3′-Methoxy-N-(3-methoxyphenyl)-N-methylbiphenyl-3-carboxamide] | 0.517 µM | > 60 µM | <0.1% | <0.1% |  |
| COc1cccc(CN(C)C(=O)c2ccc(-c3cccc(OC)c3)s2)c1 [compound 23, N-(3-Methoxybenzyl)-5-(3-methoxyphenyl)-N-methylthiophene-2-carboxamide] | 0.37 µM | > 100 µM | <0.1% | <0.1% |  |
| CN(Cc1cccc(O)c1)C(=O)c1ccc(-c2cccc(O)c2)s1 [compound 24, N-(3-Hydroxybenzyl)-5-(3-hydroxyphenyl)-N-methylthiophene-2-carboxamide] | 0.394 µM | > 5.45 µM | <0.1% | <0.1% |  |
| CN(Cc1cccc(O)c1)C(=O)c1ccc(-c2ccc(O)cc2)s1 [compound 26, N-(3-Hydroxybenzyl)-5-(4-hydroxyphenyl)-N-methylthiophene-2-carboxamide] | 0.335 µM | 5.11 µM | <0.1% | <0.1% |  |
| CN(Cc1cccc(O)c1)C(=O)c1ccc(-c2ccccc2O)s1 [compound 28, N-(3-Hydroxybenzyl)-5-(2-hydroxyphenyl)-N-methylthiophene-2-carboxamide] | 0.148 µM | 2.98 µM | <0.1% | <0.1% | 75% |
| COc1ccc(-c2ccc(C(=O)N(C)Cc3cccc(O)c3)s2)cc1 [compound 39, N-(3-Hydroxybenzyl)-5-(4-methoxyphenyl)-N-methylthiophene-2-carboxamide] | 0.161 µM | > 40 µM | <0.1% | <0.1% | 88% |
| CN(Cc1cccc(O)c1)C(=O)c1ccc(-c2cccc(N(C)C)c2)s1 [compound 40, 5-(3-(Dimethylamino)phenyl)-N-(3-hydroxybenzyl)-N-methylthiophene-2-carboxamide] | 0.246 µM | 18.6 µM | <0.1% | <0.1% |  |
| COc1cccc(-c2ccc(C(=O)N(C)Cc3cccc(O)c3)s2)c1F [compound 43, 5-(2-Fluoro-3-methoxyphenyl)-N-(3-hydroxybenzyl)-N-methylthiophene-2-carboxamide] | 0.061 µM | 4.45 µM | <0.1% | <0.1% |  |
| Cc1cccc(-c2ccc(C(=O)N(C)Cc3cccc(O)c3)s2)c1 [compound 46, N-(3-Hydroxybenzyl)-N-methyl-5-m-tolylthiophene-2-carboxamide] | 0.163 µM | 10.6 µM | <0.1% | <0.1% |  |
| COc1cccc(N(C)C(=O)c2ccc(-c3ccccc3)s2)c1 [compound 51, N-(3-Methoxyphenyl)-N-methyl-5-phenylthiophene-2-carboxamide] | 0.207 µM | 4.34 µM | <0.1% | <0.1% | 67% |
| COc1cccc(N(C)C(=O)c2ccc(-c3cccc(OC)c3F)s2)c1 [compound 56, 5-(2-Fluoro-3-methoxyphenyl)-N-(3-methoxyphenyl)-N-methylthiophene-2-carboxamide] | 0.062 µM |  | <0.1% | <0.1% | 70% |
| COc1cccc(N(C)C(=O)c2ccc(-c3cccc(N(C)C)c3)s2)c1 [compound 58, 5-(3-(Dimethylamino)phenyl)-N-(3-methoxyphenyl)-N-methylthiophene-2-carboxamide] | 0.169 µM | 10.6 µM | <0.1% | <0.1% |  |
| COc1cccc(N(C)C(=O)c2ccc(-c3ccc(OC)c(F)c3)s2)c1 [compound 61, 5-(3-Fluoro-4-methoxyphenyl)-N-(3-methoxyphenyl)-N-methylthiophene-2-carboxamide] | 0.242 µM | > 40 µM | <0.1% | <0.1% |  |
| COc1cccc(-c2ccc(C(=O)N(C)c3cccc(C)c3)s2)c1 [compound 70, 5-(3-Methoxyphenyl)-N-methyl-N-m-tolylthiophene-2-carboxamide] | 0.207 µM | 11.5 µM | <0.1% | <0.1% | 50% |
| Cc1cccc(N(C)C(=O)c2ccc(-c3cccc(O)c3)s2)c1 [compound 71, 5-(3-Hydroxyphenyl)-N-methyl-N-m-tolylthiophene-2-carboxamide] | 0.644 µM | 6.8 µM | <0.1% | <0.1% |  |
| COc1cccc(-c2ccc(C(=O)N(C)c3cccc(C(F)(F)F)c3)s2)c1 [compound 75, 5-(3-Methoxyphenyl)-N-methyl-N-(3-(trifluoromethyl)phenyl)thiophene-2-carboxamide] | 0.721 µM | 12.3 µM | <0.1% | <0.1% |  |
